According to patent publication US20260297083A1, “SUBSTITUTED ACETYLENE COMPOUND DERIVATIVES AND THEIR PHARMACEUTICAL USE” (AVELOS THERAPEUTICS INC., priority 2023, published 2026):

System: DLD-1 BRCA2(−/−) Cell
Experiment: Cell viability assay (Resazurin) in DLD1-BRCA2 cells
Type: cell-based
Details: Homo sapiens, DLD-1, 336 h, 14 days, 1,500 cells/well, final DMSO 1%
Description: DLD1-BRCA2 KG (Horizon Discovery, Cat #HD 105-007) cells and DLD1-parental cells were maintained in culture media (RPMI-1640 including 2 mM L-glutamin and 25 mM sodium bicarbonate, supplemented with 10% FBS), at 37° C. in a humidified atmosphere with 5% CO2. Cells were seeded at the final concentration of 1,500 cells/well (DLD1-BRCA2 KG) and 600 cells/well (DLD1-parental) in a 96-well plate. Four hours later, test compounds were added (the final concentration of DMSO was 1%) to the cells and media were replaced every 3-4 days for 14 days. To measure viability, cells were incubated in culture media supplemented with 0.1 mg/ml of Resazurin (Merck, Cat #R7017) for 4 hours. The fluorescence was measured at Ex/Em=560 nm/590 nm using EnSight multimode plate reader (Perkin Elmer). Data analysis and IC50 calculation was done using GraphPad Prism (Version 10.0.2).

| Structure (SMILES) | IC50 [µM] |
| --- | --- |
| Cc1cc(C(F)(F)F)cc(N2[C@H](C(=O)N(CC#Cc3cncc(N4CCOCC4)n3)c3ccc(F)c(C)c3)CCS2(=O)=O)n1 [Example 42, (S)-N-(4-fluoro-3-methylphenyl)-2-(6-methyl-4-(trifluoromethyl)pyridin-2-yl)-N-(3-(6-morpholinopyrazin-2-yl)prop-2-yn-1-yl)isothiazolidine-3-carboxamide 1,1-dioxide] | < 1 |
| Cc1cc(C(F)(F)F)cc(N2[C@H](C(=O)N(CC#Cc3ncc(N4CCOCC4)nc3N)c3ccc(F)c(C)c3)CCS2(=O)=O)n1 [Example 43] | 1.1 to 5 |
| Cc1cc(C(F)(F)F)cc(N2[C@H](C(=O)N(CC#Cc3cnc(N4CCOCC4)c(N)n3)c3ccc(F)c(C)c3)CCS2(=O)=O)n1 [Example 44, (S)-N-(3-(6-amino-5-morpholinopyrazin-2-yl)prop-2-yn-1-yl)-N-(4-fluoro-3-methylphenyl)-2-(6-methyl-4-(trifluoromethyl)pyridin-2-yl)isothiazolidine-3-carboxamide 1,1-dioxide] | 1.1 to 5 |
| Cc1cc(C(F)(F)F)cc(N2[C@H](C(=O)N(CC#Cc3cnc(N4CCOCC4)c(C)n3)c3ccc(F)c(C)c3)CCS2(=O)=O)n1 [Example 45, (S)-N-(4-fluoro-3-methylphenyl)-2-(6-methyl-4-(trifluoromethyl)pyridin-2-yl)-N-(3-(6-methyl-5-morpholinopyrazin-2-yl)prop-2-yn-1-yl)isothiazolidine-3-carboxamide 1,1-dioxide] | < 1 |
| Cc1cc(C(F)(F)F)cc(N2[C@H](C(=O)N(CC#Cc3cnc(N4CCOCC4)c(C(F)(F)F)n3)c3ccc(F)c(C)c3)CCS2(=O)=O)n1 [Example 46, (S)-N-(4-fluoro-3-methylphenyl)-2-(6-methyl-4-(trifluoromethyl)pyridin-2-yl)-N-(3-(5-morpholino-6-(trifluoromethyl)pyrazin-2-yl)prop-2-yn-1-yl)isothiazolidine-3-carboxamide 1,1-dioxide] | 1.1 to 5 |
| Cc1cc(C(F)(F)F)cc(N2[C@H](C(=O)N(CC#Cc3cnc(N4C[C@@H](C)O[C@@H](C)C4)cn3)c3ccc(F)c(C)c3)CCS2(=O)=O)n1 [Example 47, (S)-N-(3-(5-((2S,6R)-2,6-dimethylmorpholino)pyrazin-2-yl)prop-2-yn-1-yl)-N-(4-fluoro-3-methylphenyl)-2-(6-methyl-4-(trifluoromethyl)pyridin-2-yl)isothiazolidine-3-carboxamide 1,1-dioxide] | 1.1 to 5 |
| Cc1cc(C(F)(F)F)cc(N2[C@H](C(=O)N(CC#Cc3cnc(N4CC5CCC(C4)O5)cn3)c3ccc(F)c(C)c3)CCS2(=O)=O)n1 [Example 48, (3S)-N-(3-(5-(8-oxa-3-azabicyclo[3.2.1]octan-3-yl)pyrazin-2-yl)prop-2-yn-1-yl)-N-(4-fluoro-3-methylphenyl)-2-(6-methyl-4-(trifluoromethyl)pyridin-2-yl)isothiazolidine-3-carboxamide 1,1-dioxide] | < 1 |
| Cc1cc(C(F)(F)F)cc(N2[C@H](C(=O)N(CC#Cc3cnc(N4C5CCC4COC5)cn3)c3ccc(F)c(C)c3)CCS2(=O)=O)n1 [Example 49, (3S)-N-(3-(5-(3-oxa-8-azabicyclo[3.2.1]octan-8-yl)pyrazin-2-yl)prop-2-yn-1-yl)-N-(4-fluoro-3-methylphenyl)-2-(6-methyl-4-(trifluoromethyl)pyridin-2-yl)isothiazolidine-3-carboxamide 1,1-dioxide] | < 1 |

The remaining lines, values ahead:

| IC50 [µM] | Structure (SMILES) |
| --- | --- |
| < 1 | CCN1CCN(c2cnc(C#CCN(C(=O)[C@@H]3CCS(=O)(=O)N3c3cc(C(F)(F)F)cc(C)n3)c3ccc(F)c(C)c3)cn2)CC1 [Example 50, (S)-N-(3-(5-(4-ethylpiperazin-1-yl)pyrazin-2-yl)prop-2-yn-1-yl)-N-(4-fluoro-3-methylphenyl)-2-(6-methyl-4-(trifluoromethyl)pyridin-2-yl)isothiazolidine-3-carboxamide 1,1-dioxide] |
| < 1 | CCN1CCN(c2cnc(C#CCN(C(=O)[C@@H]3CCS(=O)(=O)N3c3cc(C(F)(F)F)cc(C)n3)c3cc(C)ccc3F)cn2)CC1 [Example 51, (S)-N-(3-(5-(4-ethylpiperazin-1-yl)pyrazin-2-yl)prop-2-yn-1-yl)-N-(2-fluoro-5-methylphenyl)-2-(6-methyl-4-(trifluoromethyl)pyridin-2-yl)isothiazolidine-3-carboxamide 1,1-dioxide] |
| < 1 | Cc1cc(C(F)(F)F)cc(N2[C@H](C(=O)N(CC#Cc3cnc(N4C[C@H](C)N[C@@H](C)C4)cn3)c3ccc(F)c(C)c3)CCS2(=O)=O)n1 [Example 52, (S)-N-(3-(5-((3S,5S)-3,5-dimethylpiperazin-1-yl)pyrazin-2-yl)prop-2-yn-1-yl)-N-(4-fluoro-3-methylphenyl)-2-(6-methyl-4-(trifluoromethyl)pyridin-2-yl)isothiazolidine-3-carboxamide 1,1-dioxide] |
| < 1 | Cc1cc(C(F)(F)F)cc(N2[C@H](C(=O)N(CC#Cc3cnc(N4C[C@H](C)N(C(C)C)[C@@H](C)C4)cn3)c3ccc(F)c(C)c3)CCS2(=O)=O)n1 [Example 53, (S)-N-(4-fluoro-3-methylphenyl)-N-(3-(5-((3S,5S)-4-isopropyl-3,5-dimethylpiperazin-1-yl)pyrazin-2-yl)prop-2-yn-1-yl)-2-(6-methyl-4-(trifluoromethyl)pyridin-2-yl)isothiazolidine-3-carboxamide 1,1-dioxide] |
| > 5.1 | Cc1cc(C(F)(F)F)cc(N2[C@@H](C(=O)N(CC#Cc3cnc(N4C[C@H](C)N(C(C)C)[C@@H](C)C4)cn3)c3ccc(F)c(C)c3)CCS2(=O)=O)n1 [Example 54, (R)-N-(4-fluoro-3-methylphenyl)-N-(3-(5-((3S,5S)-4-isopropyl-3,5-dimethylpiperazin-1-yl)pyrazin-2-yl)prop-2-yn-1-yl)-2-(6-methyl-4-(trifluoromethyl)pyridin-2-yl)isothiazolidine-3-carboxamide 1,1-dioxide] |
| < 1 | Cc1cc(C(F)(F)F)cc(N2[C@H](C(=O)N(CC#Cc3cnc(N4[C@H](C)CN(C(C)C)C[C@H]4C)cn3)c3ccc(F)c(C)c3)CCS2(=O)=O)n1 [Example 55, (S)-N-(4-fluoro-3-methylphenyl)-N-(3-(5-((2R,6R)-4-isopropyl-2,6-dimethylpiperazin-1-yl)pyrazin-2-yl)prop-2-yn-1-yl)-2-(6-methyl-4-(trifluoromethyl)pyridin-2-yl)isothiazolidine-3-carboxamide 1,1-dioxide] |
| < 1 | Cc1cc(C(F)(F)F)cc(N2[C@H](C(=O)N(CC#Cc3cnc(-c4c[nH]nn4)cn3)c3ccc(F)c(C)c3)CCS2(=O)=O)n1 [Example 56, (S)-N-(3-(5-(1H-1,2,3-triazol-4-yl)pyrazin-2-yl)prop-2-yn-1-yl)-N-(4-fluoro-3-methylphenyl)-2-(6-methyl-4-(trifluoromethyl)pyridin-2-yl)isothiazolidine-3-carboxamide 1,1-dioxide] |
| < 1 | Cc1cc(C(F)(F)F)cc(N2[C@H](C(=O)N(CC#Cc3cnc(-n4ccnn4)cn3)c3ccc(F)c(C)c3)CCS2(=O)=O)n1 [Example 57, (S)-N-(3-(5-(1H-1,2,3-triazol-1-yl)pyrazin-2-yl)prop-2-yn-1-yl)-N-(4-fluoro-3-methylphenyl)-2-(6-methyl-4-(trifluoromethyl)pyridin-2-yl)isothiazolidine-3-carboxamide 1,1-dioxide] |
